US20060142297A1, “Combination product of inhibitor of the src family of non-recetpor tyrosine kinases and gemcitabine” (priority 2002, published 2006)
Several values for one entry are separate records, joined by “and”; a condition that tells them apart may be missing. Equal values may be shown once.

Key:
[1] = tested on: L3.6pl pancreatic cancer cells; assay: Orthotopic L3.6pl pancreatic tumour model in nude mice: pancreatic tumour weight and liver metastases; type: in vivo, human; settings: for Liver Metastases: animals with metastases/animals
Excerpt: (§1) The test method has been described by C J Bruns et al., Cancer Research, 2000, 60, 2926-2935 and involves the injection of pancreatic tumour cells derived from the COLO 357 human pancreatic cancer cell line into pancreas tissue in a group of nude mice and an evaluation of tumour growth and metastasis into liver node tissue. L3.6pl pancreatic cancer cells were obtained after successive cycles of cell selection from nude mouse tumour tissue that developed after injection of COLO 357 human pancreatic cancer cells. L3.6pl cancer cells (1×10^6 cells) were injected into the pancreas of each animal in several groups of male athymic nude mice (n=8 to 10 per group). […] On the days where both agents were given, the gemcitabine was dosed at least 1 hour before test compound Src-1. A control group of 10 mice received intraperitoneal injections of an equivalent volume of saline according to the same treatment schedule as the combination group. The animals were sacrificed 32 days after tumour cell injection. The pancreatic tumour weight was measured. The incidence of liver metastases was evaluated. All macroscopically enlarged liver nodules were evaluated by histopathology to confirm tumour metastasis.

[2] = Body weight of treated nude mice in the L3.6pl pancreatic tumour model; type: in vivo, male athymic nude mice
Procedure: as §1, with “L3.6pl” for “The test method has been described by C J Bruns et al., Cancer Research, 2000, 60, 2926-2935 and involves the injection of pancreatic tumour cells derived from the COLO 357 human pancreatic cancer cell line into pancreas tissue in a group of nude mice and an evaluation of tumour growth and metastasis into liver node tissue. L3.6pl”

[3] = Src-1 25 mg/kg orally by gavage daily, days 1-5 and 8-12, 32 days after tumour cell injection
[4] = Src-1 50 mg/kg orally by gavage daily, days 1-5 and 8-12, 32 days after tumour cell injection

| Compound | Liver Metastases ([1]; gemcitabine 100 mg/kg intraperitoneal twice weekly (days 2, 5, 9, 12), sacrificed 32 days after tumour cell injection, monohydrochloride) | Average Tumour Weight +/− std dev ([1]; gemcitabine 100 mg/kg intraperitoneal twice weekly, 32 days after tumour cell injection) [mg] | Average Body Weight +/− std dev ([2]; gemcitabine 100 mg/kg intraperitoneal twice weekly) [g] | Average Tumour Weight +/− std dev [1, 3] [mg] | Liver Metastases [1, 3] | Average Tumour Weight +/− std dev [1, 4] [mg] | Liver Metastases [1, 4] | Average Body Weight +/− std dev ([2]; Src-1 25 mg/kg orally by gavage daily, days 1-5 and 8-12) [g] | Average Body Weight +/− std dev ([2]; Src-1 50 mg/kg orally by gavage daily, days 1-5 and 8-12) [g] |
| --- | --- | --- | --- | --- | --- | --- | --- | --- | --- |
| Cl.Nc1ccn([C@@H]2O[C@H](CO)[C@@H](O)C2(F)F)c(=O)n1 [gemcitabine, 2′-deoxy-2′,2′-difluorocytidine monohydrochloride] | ⅕ and 1/5 | 393 ± 68 | 22.7 ± 1.5 |  |  |  |  |  |  |
| COc1ccc(Cl)c(Nc2ncnc3cc(OCC4CCN(C)CC4)c(OC)cc23)c1 [Src-1, 4-(2-chloro-5-methoxyanilino)-6-methoxy-7-(N-methylpiperidin-4-ylmethoxy)quinazoline] |  |  |  | 816 ± 118 | 0/9 | 827 ± 176 | 0/9 | 22.6 ± 1.4 | 22.3 ± 6.8 |
